In article PMC7906907, “Targeting STAT3 by a small molecule suppresses pancreatic cancer progression” (Oncogene, 2021):
pKd: −log10 of the molar value.

Tests used:
PAN02-luc [1] = experiment: Pancreatic cancer liver metastatic mouse model; assay type: in vivo, C57BL/6 mice
Description: C57BL/6 mice were intrasplenically injected with luciferase-expressing PAN02 cells (PAN02-luc) in matrigel and tumor growth was assessed (A) and quantified (B) by bioluminescent imaging weekly. […] C After 4 weeks, mice were sacrificed and livers were imaged. D The body weight of C57BL/6 tumor-bearing mice were measured weekly.
C57BL/6, male, 8-week-old mice were obtained from the Animal Center of East China Normal University. All animal experimental protocols were approved by the Animal Investigation Committee of the Institute of Biomedical Sciences, East China Normal University. PAN02 cells that stably expressed luciferase (PAN02-luc) were embedded in Matrigel (BD Biosciences) and intrasplenically injected into mice. Tumors were allowed to grow for 1 week and treatment of the mice with either compound or control was started after grouping of the mice according to average bioluminescence. The IVIS Imaging System (Xenogen Corporation) was used to monitor pancreatic tumor growth and metastasis. Images and measurements of bioluminescent signals were acquired and analyzed using Living Image and Xenogen software.

PAN02-luc [2] = experiment: Orthotopic pancreatic cancer tumor model; assay type: in vivo, C57BL/6 mice; conditions: week 4, C188-9 group
Description: Fig. 7 N4 inhibits tumor growth in an orthotopic pancreatic cancer model. C57BL/6 mice were injected the tail of the pancreas with luciferase-expressing PAN02 cells (PAN02-luc) in matrigel and tumor growth was assessed (A) and quantified (B) by bioluminescent imaging weekly. Data represent the mean ± SD; *P < 0.05, **P < 0.01, ***P < 0.001, ****P < 0.0001, n.s. not significant by one-way ANOVA followed by multiple-comparison tests. (n = 5 mice per group) C After 4 weeks, mice were sacrificed and the pancreas were imaged. The tumor of pancreas were photographed (D) and weighted (E), scale bar, 0.5 cm.
Briefly, specimens of tumor tissue from xenograft models and orthotopic models were fixed with 4% paraformaldehyde solution at 4 °C overnight. […] Then, according to the manufacturer’s instructions (SK-4100; Vector laboratories), the avidin-biotin peroxidase complex was used, followed by colorimetric detection using DAB. Finally, hematoxylin was used to counterstain the sections and coverslips were mounted.
C57BL/6 mice, male, 4–6 week old were obtained from the Animal Center of East China Normal University. All animal experimental protocols were approved by the Animal Investigation Committee of the Institute of Biomedical Sciences, East China Normal University. PAN02 cells that stably expressed luciferase (PAN02-luc) were embedded in Matrigel (BD Biosciences) were injected with 5 × 10^5 in the tail of the pancreas. On the next day (day 0), the mice were subjected to bioluminescent imaging and divided into four groups according to the luciferase luminescence value. Mice were treated with intraperitoneal injection of indicated compound or drug. Tumor growth was analyzed once a week by an IVIS Imaging System (Xenogen Corporation, Alameda, CA) and end of study tumor weight was determined immediately postmortem. […] Images and measurements of bioluminescent signals were acquired and analyzed using Living Image and Xenogen software.

STAT3^127–722 protein = target: T1, STAT3^127–722 protein (Homo sapiens, UniProt P40763); experiment: Surface plasmon resonance (SPR) assay; assay type: binding; conditions: SPR
T1 construct: made in house
Description: Surface plasmon resonance (SPR) analysis was conducted with a Biacore T200 instrument (GE Healthcare) with CM5 sensor chip (GE Healthcare). To test N4 binding of STAT3^127–722 protein, serially diluted concentrations of N4 were injected into the flow system. Experiments were conducted using phosphate buffered saline (PBS) and the analyte was injected at the flow rate of 30 μL/min. The association time was 60 s and the dissociation time was 30 s. Since N4 was dissolved in PBS containing 5% dimethyl sulfoxide and a solvent correction assay was performed to adjust the results. STAT3^127–722 protein was immobilized on the sensor chip (CM5) using the amine-coupling method according to standard protocols. N4 or Stattic at various concentrations were injected into the flow system. […] The KD values were calculated with the kinetics and affinity analysis option of Biacore T200 plus evaluation software (version 3.0).

[3] = target: His-STAT3^127-722 protein (Homo sapiens, UniProt P40763); experiment: Fluorescence polarization (FP) assay, STAT3-phosphopeptide interaction; assay type: binding; set-up: We purified amino acids 127–722 of the STAT3 protein for this assay; made in house; conditions: Supplementary Table 1; inhibition of STAT3 dimerization in FP assay; read-out: FP assay (IC50 μM)
His-STAT3^127-722 protein, sequence (P40763 127-722): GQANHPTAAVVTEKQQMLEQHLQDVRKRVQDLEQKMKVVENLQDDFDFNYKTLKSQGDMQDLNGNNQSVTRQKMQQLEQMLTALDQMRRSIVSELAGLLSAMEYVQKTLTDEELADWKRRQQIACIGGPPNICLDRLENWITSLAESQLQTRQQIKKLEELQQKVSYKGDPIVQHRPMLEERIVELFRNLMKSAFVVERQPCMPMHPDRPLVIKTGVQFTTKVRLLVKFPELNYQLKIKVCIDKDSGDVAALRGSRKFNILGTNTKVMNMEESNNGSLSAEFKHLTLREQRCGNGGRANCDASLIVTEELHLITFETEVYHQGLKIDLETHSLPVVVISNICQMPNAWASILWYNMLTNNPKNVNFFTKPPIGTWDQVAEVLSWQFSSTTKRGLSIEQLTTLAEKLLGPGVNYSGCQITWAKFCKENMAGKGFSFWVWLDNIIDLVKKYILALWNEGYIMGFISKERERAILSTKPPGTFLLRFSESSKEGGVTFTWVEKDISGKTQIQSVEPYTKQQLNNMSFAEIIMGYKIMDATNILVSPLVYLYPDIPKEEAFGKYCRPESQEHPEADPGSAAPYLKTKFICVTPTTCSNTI
Description: A Purified STAT3 protein was incubated with labeled phosphopeptide, 5-carboxyfluorescein-GpYLPQTV-NH2 for 1 h at 37 °C. FP signals were measured, and the data were analyzed using Graph Pad 7.0 software. […] C Different concentrations of N4 were pre-incubated with recombined STAT3 protein for 1 h, then 10 nM of labeled peptide was added for 1 h. The IC50 was calculated using Graph Pad 7.0.
The labeled phosphopeptide: 5-carboxyfluorescein-GpYLPQTV-NH2 (where pY represents phospho-Tyr) was used as the STAT3 binding probe. To evaluate the effect of compounds in inhibiting STAT3-peptide interaction, serial dilutions of the STAT3 competitors were prepared. The diluted compounds were added to the reaction mixture in 100 μl of FP buffer (50 mM HEPES, pH 7.5, 150 mM NaCl, 0.1% NP-40, and 1 mM dithiothreitol) containing 500 nM his-STAT3^127–722 protein for pre-incubation at 37 °C for 1 h. Then, 10 nM of the labeled peptide was added and incubated for 1 h. After incubation, FP was measured on a Cytation^TM 5 cell imaging multi-mode Reader (BioTek) using excitation and emission wavelengths of 480 nm and 535 nm, respectively. Each reaction was repeated two or three times. Binding or competitive parameters were calculated from a nonlinear regression using GraphPad Prism 7.0.

T1 sequence (P40763 127-722): as above

`COc1ccc(S(=O)(=O)Nc2cc(-c3c(O)ccc4ccccc34)c(O)c3ccccc23)cc1` [C188-9, reference compound] was tested. Which “all mice died by week” value (PAN02-luc [1]; C188-9 group, n = 5) did it give?
The value was ≤ 6 week.

What about the “tumor metastasis suppressed compared with the control group” value (PAN02-luc [1]; week 4, C188-9 group) of the same molecule?
Its value is 30.65%.

And the “tumor volume suppressed compared with the control group” value (PAN02-luc [2])?
Its value is 48.23%.

How did the pKd (STAT3^127–722 protein; STAT3^127–722 immobilized on CM5 chip, 25 °C) turn out when `O=[N+]([O-])c1ccc2c(c1)S(=O)(=O)C=C2` [Stattic, reference compound] was run?
Its pKd is 5.02.

And the pKd (STAT3^127–722 protein; value given in figure)?
Its pKd is 5.02.

And the IC50 [3]?
The IC50 was 4.99 µM.
